For data set [1], the target named is IKZF3 protein (Homo sapiens (Human), UniProt Q96SW2+Q9UKT9). In words: Western-blot assay of substrate protein degradation in hPBMC, IKZF3. It counts as cell-based. The settings on record: hPBMC cells, compound 500 nM, 24 hours, Western blot. (Immunoblotting shows a protein as a band on a membrane.)
Data set [2] in a line: Pharmacokinetic study, oral administration, mouse plasma. The format is in vivo, mice. How it is done: The experimental animals used can be those commonly used in pharmacokinetic experiments, e.g., adult and healthy rodents (e.g., mice, rats (such as Sprague-Dawley (SD) rats), guinea pigs) or non-rodents (rabbits, dogs, and monkeys). In the present disclosure, mice were used as the experimental animals.
The experimental animals were divided into two groups: a control group (for collecting blank plasma) and an orally administered group (dosed at 10 mg/kg or 30 mg/kg). Blood samples were collected at predetermined sampling time points after administration, such as 0.25 h, 0.5 h, 1 h, 2 h, 4 h, 8 h, and 24 h post-dosing. Blank plasma was collected from the control group.
Plasma samples were preprocessed before analysis: 10 μL of 50% acetonitrile and 200 μL of internal standard solution (containing 50 ng/mL dexamethasone in acetonitrile) were added to 10 μL of plasma samples. For the blank control group, the same volume of acetonitrile was added instead of the internal standard. The processed samples were vortexed, centrifuged, and the supernatant was taken for LC-MS/MS injection analysis.
After preparing standard curves and quality control (QC) samples, the concentrations of the compounds in the plasma samples were determined by LC-MS/MS analysis. Based on the plasma concentration data obtained from LC-MS/MS analysis, the pharmacokinetic parameters of the test compounds were calculated using the non-compartmental model in the pharmacokinetic calculation software WinNonlin v8.1.

Data set [3] concerns MDA-MB-231 cells. In words: Tumor cell proliferation IC50 (CCK-8), MDA-MB-231. The settings on record: Homo sapiens, MDA-MB-231, 96 h, read-out: IC50 for inhibiting the proliferation of tumor cells, MDA-MB-231.
Description: (§1) Prior to experimentation, all cells used were correctly identified by STR profiling, and tested negative for mycoplasma through routine screenings.
(§2) After the cells were treated with the compounds of the present disclosure for a period of time, the cell viability detection reagent was added to the culture medium for cell viability assessment according to the instructions provided with the CCK-8 kit. […] The growth inhibition of the compounds of the present disclosure on cells was plotted by Prism Graphpad software, and the IC50 values of the compounds of the present disclosure were calculated therefrom.
The test system of data set [4] is Daudi cells. In words: Tumor cell proliferation IC50 (CCK-8), Daudi.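 Also: cell viability read with CCK-8 reagent after compound exposure of Daudi cells, IC50 derived from plotted growth inhibition curves.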 The note with it: Homo sapiens, read-out: IC50 for inhibiting the proliferation of tumor cells, Daudi.
Description: (§3) The tumor cells used herein were cultured in a cell culture medium listed in table A at 37° C. in an incubator with 5% CO2.
as §2
For data set [5], the system named is MM.1R cells. In words: Tumor cell proliferation IC50 (CCK-8), MM.1R. The settings on record: Homo sapiens, 72 h, read-out: IC50 for inhibiting the proliferation of tumor cells, MM.1R.
Description: as §3, §2
For data set [6], the system named is Kasumi-1 cells. In words: Tumor cell proliferation IC50 (CCK-8), Kasumi-1. The note with it: Homo sapiens, Kasumi 1, 72 h, read-out: IC50 for inhibiting the proliferation of tumor cells, Kasumi-1.
Description: as §3, §2
In data set [7] the target is GSPT1 protein (Homo sapiens (Human), UniProt P15170+Q96SW2). In words: Western-blot assay of substrate protein degradation in hPBMC, GSPT1. The format is cell-based. The settings on record: hPBMC cells, compound 500 nM, 24 hours, Western blot.
Sequence of GSPT1 protein (P15170 whole entry): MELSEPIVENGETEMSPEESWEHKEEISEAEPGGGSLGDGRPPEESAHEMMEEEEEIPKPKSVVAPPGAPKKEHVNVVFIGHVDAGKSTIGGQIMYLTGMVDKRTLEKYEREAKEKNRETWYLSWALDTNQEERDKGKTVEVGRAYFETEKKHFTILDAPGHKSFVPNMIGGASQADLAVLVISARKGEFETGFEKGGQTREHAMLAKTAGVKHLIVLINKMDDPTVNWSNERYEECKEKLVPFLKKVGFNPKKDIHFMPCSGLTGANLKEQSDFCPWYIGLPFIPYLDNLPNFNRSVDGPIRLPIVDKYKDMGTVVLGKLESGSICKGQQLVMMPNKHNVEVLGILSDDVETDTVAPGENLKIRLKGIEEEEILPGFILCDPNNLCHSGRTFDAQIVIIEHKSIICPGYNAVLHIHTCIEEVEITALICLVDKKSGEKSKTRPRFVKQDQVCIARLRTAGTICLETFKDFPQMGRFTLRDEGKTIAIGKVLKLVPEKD
Sequence of GSPT1 protein (Q96SW2 whole entry): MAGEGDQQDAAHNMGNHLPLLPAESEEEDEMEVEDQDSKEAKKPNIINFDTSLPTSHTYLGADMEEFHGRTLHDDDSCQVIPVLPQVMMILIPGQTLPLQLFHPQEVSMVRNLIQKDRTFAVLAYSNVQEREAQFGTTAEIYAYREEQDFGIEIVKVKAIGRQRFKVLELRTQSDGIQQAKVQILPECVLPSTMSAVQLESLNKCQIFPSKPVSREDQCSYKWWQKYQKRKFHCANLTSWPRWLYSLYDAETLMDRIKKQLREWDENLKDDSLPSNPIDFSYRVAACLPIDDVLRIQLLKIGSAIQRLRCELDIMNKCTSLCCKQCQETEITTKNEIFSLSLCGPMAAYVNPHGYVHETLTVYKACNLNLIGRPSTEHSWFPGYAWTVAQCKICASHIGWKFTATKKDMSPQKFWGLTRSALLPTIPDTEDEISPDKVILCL
Sequence of GSPT1 protein (Q16531 whole entry partner): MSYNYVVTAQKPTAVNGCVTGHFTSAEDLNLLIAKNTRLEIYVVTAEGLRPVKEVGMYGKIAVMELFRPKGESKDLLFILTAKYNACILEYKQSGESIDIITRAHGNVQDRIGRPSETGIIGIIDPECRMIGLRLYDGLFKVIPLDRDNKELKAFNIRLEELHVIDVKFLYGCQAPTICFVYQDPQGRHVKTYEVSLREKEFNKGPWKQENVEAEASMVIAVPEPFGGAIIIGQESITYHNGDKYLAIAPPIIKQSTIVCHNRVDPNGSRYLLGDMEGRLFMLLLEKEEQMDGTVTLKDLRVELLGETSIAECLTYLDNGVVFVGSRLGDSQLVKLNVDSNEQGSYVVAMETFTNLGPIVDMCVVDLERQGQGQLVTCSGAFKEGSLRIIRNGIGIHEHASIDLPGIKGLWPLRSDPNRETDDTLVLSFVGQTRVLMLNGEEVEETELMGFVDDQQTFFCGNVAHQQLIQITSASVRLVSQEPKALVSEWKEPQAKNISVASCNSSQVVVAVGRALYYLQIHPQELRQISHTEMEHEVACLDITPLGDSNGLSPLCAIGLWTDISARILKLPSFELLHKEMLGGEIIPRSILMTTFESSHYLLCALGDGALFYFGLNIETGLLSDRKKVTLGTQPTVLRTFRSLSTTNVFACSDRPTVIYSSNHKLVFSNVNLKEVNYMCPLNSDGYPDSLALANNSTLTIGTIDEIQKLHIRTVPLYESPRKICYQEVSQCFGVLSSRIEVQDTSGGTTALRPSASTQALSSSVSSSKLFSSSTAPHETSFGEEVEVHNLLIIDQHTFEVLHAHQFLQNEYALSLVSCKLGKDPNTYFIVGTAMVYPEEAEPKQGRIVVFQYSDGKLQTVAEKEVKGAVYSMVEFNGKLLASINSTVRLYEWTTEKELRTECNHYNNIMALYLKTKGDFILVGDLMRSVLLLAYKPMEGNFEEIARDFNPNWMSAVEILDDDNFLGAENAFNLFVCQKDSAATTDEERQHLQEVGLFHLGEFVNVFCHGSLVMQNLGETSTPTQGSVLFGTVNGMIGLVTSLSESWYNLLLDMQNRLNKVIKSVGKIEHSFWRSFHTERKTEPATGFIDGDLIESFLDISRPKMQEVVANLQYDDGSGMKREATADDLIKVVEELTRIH
In data set [8] the target is human Cereblon WT GST-tagged protein (Homo sapiens (Human), UniProt Q96SW2). In words: CRBN-binding affinity, HTRF (CEREBLON BINDING kit). The gist of the method: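 HTRF competition readout: compounds compete with a thalidomide-Re conjugate for GST-tagged wild-type human CRBN detected via Eu-labelled anti-GST antibody. Inhibition rate derived relative to protein-free blank wells.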
Sequence of human Cereblon WT GST-tagged protein (Q96SW2 whole entry): as the sequence (Q96SW2 whole entry) above
(In general: Time-resolved FRET reads energy transfer from a long-lived donor to a nearby acceptor.)

For data set [9], the target named is IKZF1 protein (Homo sapiens (Human), UniProt Q13422+Q96SW2). In words: Western-blot assay of substrate protein degradation in hPBMC, IKZF1. The format is cell-based. The note with it: hPBMC cells, compound 500 nM, 24 hours, Western blot.
Sequence of IKZF1 protein (Q13422 whole entry): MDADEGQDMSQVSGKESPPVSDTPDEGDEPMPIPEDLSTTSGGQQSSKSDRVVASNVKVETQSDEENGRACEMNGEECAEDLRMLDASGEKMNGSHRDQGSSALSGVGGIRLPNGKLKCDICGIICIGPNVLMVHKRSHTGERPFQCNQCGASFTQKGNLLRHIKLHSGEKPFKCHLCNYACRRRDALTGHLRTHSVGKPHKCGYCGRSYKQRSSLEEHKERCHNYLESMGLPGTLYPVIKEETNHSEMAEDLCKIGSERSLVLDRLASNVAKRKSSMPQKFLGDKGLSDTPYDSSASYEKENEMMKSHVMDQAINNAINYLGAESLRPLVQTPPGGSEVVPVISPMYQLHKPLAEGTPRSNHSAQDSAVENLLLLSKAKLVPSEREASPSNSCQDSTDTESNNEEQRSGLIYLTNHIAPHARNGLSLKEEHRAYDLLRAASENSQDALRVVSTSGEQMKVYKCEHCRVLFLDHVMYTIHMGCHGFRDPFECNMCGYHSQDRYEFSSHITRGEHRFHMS
Sequence of IKZF1 protein (Q96SW2 whole entry): as the sequence (Q96SW2 whole entry) above
Sequence of IKZF1 protein (Q16531 whole entry partner): as the sequence (Q16531 whole entry partner) above
The test system of data set [10] is SW620 cells. In words: Tumor cell proliferation IC50 (CCK-8), SW620. The note with it: Homo sapiens, SW-620, 96 h, read-out: IC50 for inhibiting the proliferation of tumor cells, SW620.
Description: as §3, §2
For data set [11], the system named is MV-4-11 cells. In words: Tumor cell proliferation IC50 (CCK-8), MV-4-11. The note with it: Homo sapiens, MV4-11, 96 h, read-out: IC50 for inhibiting the proliferation of tumor cells, MV-4-11.
Description: as §3, §2
In data set [12] the test system is CCRF-CEM cells. In words: Tumor cell proliferation IC50 (CCK-8), CCRF-CEM.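 Also: cell viability measured with CCK-8 reagent after compound treatment, IC50 taken from plotted growth inhibition curves.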 The note with it: Homo sapiens, 96 h, read-out: IC50 for inhibiting the proliferation of tumor cells, CCRF-CEM.
Data set [13] relates to Mino cells. In words: Tumor cell proliferation IC50 (CCK-8), Mino.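 Also: cell viability assessed with CCK-8 reagent after compound exposure, IC50 derived from plotted growth inhibition curves.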 The note with it: Homo sapiens, 72 h, read-out: IC50 for inhibiting the proliferation of tumor cells, Mino.
In data set [14] the test system is TMD8 cells. In words: Tumor cell proliferation IC50 (CCK-8), TMD8. The settings on record: Homo sapiens, TMD8, 72 h, read-out: IC50 for inhibiting the proliferation of tumor cells, TMD8.
Description: as §3, §2
Data set [15] has as its system Ramos cells. In words: Tumor cell proliferation IC50 (CCK-8), Ramos. The note with it: Homo sapiens, 72 h, read-out: IC50 for inhibiting the proliferation of tumor cells, Ramos.
Description: as §3, §2
The subject of data set [16] is MM.1S cells. In words: Tumor cell proliferation IC50 (CCK-8), MM.1S.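 Also: viability of cultured cells read by CCK-8 reagent after compound exposure, growth inhibition curves fitted to derive IC50.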 The note with it: Homo sapiens, MM1.S, 72 h, read-out: IC50 for inhibiting the proliferation of tumor cells, MM.1S.
The subject of data set [17] is SU-DHL-6 cells. In words: Tumor cell proliferation IC50 (CCK-8), SU-DHL-6. The note with it: Homo sapiens, SU-DHL-6, 72 h, read-out: IC50 for inhibiting the proliferation of tumor cells, SU-DHL-6.
Description: as §1, §2
In data set [18] the test system is SU-DHL-4 cells. In words: Tumor cell proliferation IC50 (CCK-8), SU-DHL-4. The settings on record: Homo sapiens, SU-DHL-4, 72 h, read-out: IC50 for inhibiting the proliferation of tumor cells, SU-DHL-4.
Description: as §1, §2

The results in this text go back to patent publication US20260028326A1, “COMPOUND BASED ON ISOINDOLINE-SUBSTITUTED GLUTARIMIDE BACKBONE AND USE THEREOF” (GLUETACS THERAPEUTICS (SHANGHAI) CO., LTD., priority 2022, published 2026).

Sequence of IKZF3 protein (Q9UKT9 whole entry): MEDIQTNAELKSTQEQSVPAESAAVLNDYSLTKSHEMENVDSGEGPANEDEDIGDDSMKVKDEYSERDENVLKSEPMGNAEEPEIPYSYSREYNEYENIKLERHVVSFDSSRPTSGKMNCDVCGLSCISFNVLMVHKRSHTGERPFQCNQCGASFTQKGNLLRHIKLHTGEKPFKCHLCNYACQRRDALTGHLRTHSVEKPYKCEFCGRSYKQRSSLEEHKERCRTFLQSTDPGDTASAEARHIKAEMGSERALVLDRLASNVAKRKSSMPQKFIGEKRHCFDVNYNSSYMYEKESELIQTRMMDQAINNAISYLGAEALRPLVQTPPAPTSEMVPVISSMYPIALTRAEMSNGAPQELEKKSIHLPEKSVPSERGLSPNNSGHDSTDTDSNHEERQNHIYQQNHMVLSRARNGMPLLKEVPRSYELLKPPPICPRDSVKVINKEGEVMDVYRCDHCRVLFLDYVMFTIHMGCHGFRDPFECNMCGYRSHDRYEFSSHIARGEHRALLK
Sequence of IKZF3 protein (Q96SW2 whole entry): as the sequence (Q96SW2 whole entry) above
Sequence of IKZF3 protein (Q16531 whole entry partner): as the sequence (Q16531 whole entry partner) above

As usually defined, the AUC(0-t) is exposure summed from dosing to a finite time, without extrapolation to infinity. A high value points to more exposure. In the case of `CC1(C)CCC(CN2CCN(Cc3ccc4c(c3)CN(C3CCC(=O)NC3=O)C4=O)CC2)=C(c2ccc(Cl)cc2)C1` (stereo not shown) [GT-02785, 3-(5-((4-((4′-chloro-5,5-dimethyl-3,4,5,6-tetrahydro-[1,1′-biphenyl]-2-yl)methyl)piperazin-1-yl)methyl)-1-oxoisoindolin-2-yl)piperidine-2,6-dione], the “residual substrate protein level, IKZF3” value in [1] is reported as “A (A represents a residual substrate protein level of <50%)”. The AUC(0-t) in data set [2] (p.o. 10 mg/kg) was over 500 ng·h/mL. Moreover, the IC50 in data set [3] is 50 to 100 nM; in [4], 159 nM; in data set [5] it was 10 to 50 nM; in data set [6], 50 to 100 nM; in data set [8], 3070 nM; in data set [10], 50 to 100 nM. Also, the IC50 in data set [11] is 24 nM; in data set [12], 10 to 50 nM; in data set [13], 5 to 10 nM; in data set [14], 100 to 500 nM; in [15] it was 100 to 500 nM; in data set [16] it was under 5 nM. In addition, in [7], the “residual substrate protein level, GSPT1” value was “A (A represents a residual substrate protein level of <50%)”. Also, in data set [9], the “residual substrate protein level, IKZF1” value is recorded as “A (A represents a residual substrate protein level of <50%)”.

With `O=C1CCC(N2Cc3cc(-c4ccc(CN5CCN(Cc6ccccc6-c6ccc(Cl)cc6)CC5)cc4)ccc3C2=O)C(=O)N1` (stereo not shown) [GT-03356, 3-(5-(4-((4-((4′-chloro-[1,1′-biphenyl]-2-yl)methyl)piperazin-1-yl)methyl)phenyl)-1-oxoisoindolin-2-yl)piperidine-2,6-dione], the figures for the IC50 in data set [12], in [15] and in data set [17] were 1000 to 5000 nM, 5000 to 10000 nM and 100 to 500 nM, respectively.

In the case of `CC1(C)CCC(CN2CCN(Cc3ccc4c(c3)CN(C3CCC(=O)NC3=O)C4=O)CC2)=C(c2ccc(F)cc2)C1` (stereo not shown) [GT-03454, 3-(5-((4-((4′-fluoro-5,5-dimethyl-3,4,5,6-tetrahydro-[1,1′-biphenyl]-2-yl)methyl)piperazin-1-yl)methyl)-1-oxoisoindolin-2-yl)piperidine-2,6-dione], the “residual substrate protein level, IKZF3” value in data set [1] was “A (A represents a residual substrate protein level of <50%)”. Besides, the IC50 is 100 to 500 nM in data set [5]; 410 nM in data set [8]; 10 to 50 nM in data set [12]; 1000 to 5000 nM in data set [14]; 1000 to 5000 nM in [15]. Also, the “residual substrate protein level, GSPT1” value in data set [7] was “A (A represents a residual substrate protein level of <50%)”. In data set [9], the “residual substrate protein level, IKZF1” value is given as “A (A represents a residual substrate protein level of <50%)”.

`CC1(C)CCC(CN2CCN(Cc3ccc4c(c3F)CN(C3CCC(=O)NC3=O)C4=O)CC2)=C(c2ccc(Cl)cc2)C1` (stereo not shown) [GT-03468, 3-(5-((4-((4′-chloro-5,5-dimethyl-3,4,5,6-tetrahydro-[1,1′-biphenyl]-2-yl)methyl)piperazin-1-yl)methyl)-4-fluoro-1-oxoisoindolin-2-yl)piperidine-2,6-dione]: in [1], the “residual substrate protein level, IKZF3” value is recorded as “A (A represents a residual substrate protein level of <50%)”. In addition, the AUC(0-t) in [2] (p.o. 30 mg/kg) is over 500 ng·h/mL. For the same molecule, the IC50 in data set [3] was 10 to 50 nM; in data set [5] it was 10 to 50 nM; in data set [6], 10 to 50 nM; in [18] it was 5000 to 10000 nM; in data set [8], 2960 nM; in data set [10] it was 10 to 50 nM. The IC50 in [12] lay in the range of 10 to 50 nM; in [13] it was 100 to 500 nM; in data set [14], 100 to 500 nM; in data set [15] it was 100 to 500 nM; in data set [16], 10 to 50 nM. The “residual substrate protein level, GSPT1” value in data set [7] is “A (A represents a residual substrate protein level of <50%)”. In addition, the “residual substrate protein level, IKZF1” value in [9] is reported as “A (A represents a residual substrate protein level of <50%)”.

Regarding `CC1(C)CCC(CN2CCN(Cc3cc(F)c4c(c3)CN(C3CCC(=O)NC3=O)C4=O)CC2)=C(c2ccc(Cl)cc2)C1` (stereo not shown) [GT-03469, 3-(5-((4-((4′-chloro-5,5-dimethyl-3,4,5,6-tetrahydro-[1,1′-biphenyl]-2-yl)methyl)piperazin-1-yl)methyl)-7-fluoro-1-oxoisoindolin-2-yl)piperidine-2,6-dione], the IC50 is 100 to 500 nM in data set [3], 2120 nM in data set [8] and 1000 to 5000 nM in data set [12].

Consider `O=C1CCC(N2Cc3c(ccc(CN4CCN(Cc5ccccc5-c5ccc(Cl)cc5)CC4)c3F)C2=O)C(=O)N1` (stereo not shown) [GT-03694, 3-(5-((4-((4′-chloro-[1,1′-biphenyl]-2-yl)methyl)piperazin-1-yl)methyl)-4-fluoro-1-oxoisoindolin-2-yl)piperidine-2,6-dione], for which, in data set [1], the “residual substrate protein level, IKZF3” value is recorded as “A (A represents a residual substrate protein level of <50%)”. Moreover, the AUC(0-t) in [2] (p.o. 30 mg/kg) was over 500 ng·h/mL. Besides, the “residual substrate protein level, GSPT1” value in data set [7] is reported as “A (A represents a residual substrate protein level of <50%)”. Moreover, the IC50 in data set [18] is 100 to 500 nM; in data set [8], 540 nM; in data set [10], under 5 nM; in [13], 5 to 10 nM. Also, the “residual substrate protein level, IKZF1” value in [9] was “A (A represents a residual substrate protein level of <50%)”.

Turning to `O=C1CCC(N2Cc3cc(CN4CCN(Cc5ccccc5-c5ccc(Cl)cc5)CC4)c(F)cc3C2=O)C(=O)N1` (stereo not shown) [GT-03695, 3-(5-((4-((4′-chloro-[1,1′-biphenyl]-2-yl)methyl)piperazin-1-yl)methyl)-6-fluoro-1-oxoisoindolin-2-yl)piperidine-2,6-dione], the “residual substrate protein level, IKZF3” value in data set [1] is “A (A represents a residual substrate protein level of <50%)”. In [2] (p.o. 30 mg/kg), the AUC(0-t) is over 500 ng·h/mL. Besides, in data set [7], the “residual substrate protein level, GSPT1” value is “A (A represents a residual substrate protein level of <50%)”. The IC50 was 50 to 100 nM in data set [18], 1170 nM in data set [8], 5 to 10 nM in data set [10] and 5 to 10 nM in data set [13]. Besides, the “residual substrate protein level, IKZF1” value in [9] was “A (A represents a residual substrate protein level of <50%)”.
